{
  "source": "patent US12528840B2",
  "about": "“Transcription active complex targeting cancer drug from viral protein sequence” (The Regents of the University of California, priority 2020, dated 2026)",
  "key": {"BCBL-1 PEL cell line": {"tested_on": "BCBL-1 PEL cell line", "test": "PEL xenograft study in NRG mice", "from_the_text": "We mapped the responsible domain and molecular mechanisms with biochemical and genetic approaches (FIG. 1).\nBased on cell killing efficacies of the peptide in vitro, we select two peptides and examine the efficacies to inhibit tumor growth in xenograft models. We use a PEL cell xenograft models. […] Standardized PK/PD studies are completed in rat models at the UCD comprehensive cancer center PK/PD core facility.\nAmino acid sequence alignment identified homologous protein sequences in other gamma-herpesvirus protein sequence (The Top table in FIG. 8a, also shown in FIG. 2). Based on their alignment, “non-natural” protein sequences were generated by substituting specific amino acids (The peptides are: Wt d1-1, DS 3-1, DE 3-1, and Mut d1-1 (control peptide) from the top to the bottom in the Bottom Table in FIG. 8a). Those four peptides were used in MTT assays in FIG. 8b to examine the effects on cell growth of BCBL-1 […] effusion lymphoma (PEL) cell line. Also tested are three D-amino acid substitutions first two amino acids and c-terminal amino acid (ST d3-1), in comparison with one D-amino acid peptide (N-terminus) (Wt d3-1)."}, "U937 cell line": {"tested_on": "U937 cell line", "test": "MTT assay, U937", "format": "cell-based", "details": "U973 monocytic leukemia cell line", "protocol": "FIG. 6. Viral and cellular responses to K-Rta peptide; identification of VGN50. (a) Protein sequence alignment. FIG. 6(A) The effect of VGN50 on various cancer cell types. MTT assays were performed with the indicated cell lines treated with various VGN50 concentrations. The O.D. of mock-treated samples were set as 100%, and O.D. from detergent treated cells were set as 0%. Percentage viability+/−SD was calculated for each treatment (N=3 samples/treatment). FIG. 6(B) Viability assay with flow cytometry. Cell viability was measured in triplicate with live/dead staining and the cell killing effects on cancer cells was compared with normal peripheral blood mononuclear cells (PBMC) from three healthy donors. Results are presented as percentage viability+/−SD deviation (N=3 samples/group).\nAs shown in FIG. 6(a), multiple cancer cell lines were used for MTT assay to evaluate cancer cell killing efficacies of the MBK50 peptide at different concentrations (cell variability studies). […] Importantly, human peripheral blood mononuclear cells (PBMCs) from healthy donors were approximately 10-fold less sensitive to MBK-mediated killing compared to myeloid and lymphoid cancer cell lines (e.g., THP-1 and BCBL-1) as assessed by flow cytometry after live/dead staining (FIG. 6(b)). […]"}, "BCBL-1 PEL cells": {"tested_on": "BCBL-1 PEL cells", "test": "Cytokines in ascites of BCBL-1 PEL xenograft mice (Olink inflammatory panel)", "format": "in vivo", "protocol": "Also, the effect of peptide on cytokine production by BCBL-1 PEL cells in xenograft mouse model was studied. Acsite was collected from NRG mice baring BCBL-1 PELs, which were either treated with wild type MBK50 (Wt) peptide (n=3), control Mut peptide (n=3) or left untreated (n=3) for 20 days. The levels of cytokines in the ascites were measured by Olink technology using inflammatory panel that can detect 92 inflammatory proteins. Data was analyzed with Olink Insights Stat analysis software. […] Thus, inflammatory protein expression profile of Wt peptide is distinct from the profile of other groups. […] On the right panel in (FIG. 12c), 15 cytokine expression levels expressed in NPX units, Olink's arbitrary unit, on log 2 scale were compared between untreated, mutant peptide and Wt peptide-treated groups."}, "CD14+ monocytes": {"tested_on": "CD14+ monocytes", "test": "CD14+ monocyte live/dead staining", "format": "cell-based", "details": "16 or 32 μM, 2 days; PBS, LPS, polyIC conditions; vs control peptide or PBS", "protocol": "FIG. 13. Effect of MBK50 on CD14+ monocytes. FIG. 13(a) A scheme of the experimental procedure. CD14+ monocytes were prepared with magnetic beads from the PBMC of healthy donors. Cells were washed and cultured at 1×10^6/ml in a 96 well plate (200 μl/well in triplicates) without or with LPS (100 ng/ml) or poly I:C (10 μg/ml) in the presence of MBK (16 or 32 μM) or mutant peptide (32 μM) for 2 days. Live cells were determined using live/dead staining followed by flow cytometry analysis. FIG. 13(b) A representative flow profile with the gating strategy for live cells is shown. FIG. 13(c) Averages percentage of live cells for each culture condition are shown. **p<0.01, ***p<0.001, ****p<0.0001\nMonocytic cells are important antigen-presenting cells bridging innate and antigen-specific immune responses. To evaluate the effect of MBK on monocytic cells, CD14+ monocytes were prepared with magnetic beads from the PBMC of healthy donors. Cells were washed and cultured at 1×10^6/ml in a 96 well plate (200 μl/well in triplicates) without or with LPS (100 ng/ml) or poly I:C (10 μg/ml) in the presence of MBK (16 or 32 μM) or mutant peptide (32 μM) for 2 days. Live cells were determined using live/dead staining, followed by flow cytometry analysis."}, "IRF4": {"tested_on": "IRF4", "test": "Intracellular staining of IRF4 in LPS-activated THP-1 cells", "format": "cell-based", "details": "THP-1, LPS 100 ng/ml, 16 μM, 24 hours", "from_the_text": "FIG. 16. Effect of MBK50 on MYC and IRF4 expression in LPS-activated monocytic leukemia cell line THP-1 cells. […] MYC and IRF4 expression levels were examined by intracellular staining of MYC and IRF4 with isotype control staining followed by flow cytometry. FIG. 16(a) A scheme of the experimental procedure. FIG. 16(b) A representative histogram overlay for the MYC expression in THP-1 cells treated with MBK50, mutant control peptide or PBS, with isotype control. The average mean fluorescent intensity (MFI) for MYC expression (n=3) for each treatment is shown in the right panel. FIG. 16(c) A representative histogram overlay for the IRF4 expression (red) in THP-1 cells treated with MBK50, mutant control peptide, or PBS, with isotype control (blue). The average MFI for IRF4 expression for each treatment is shown in the right panel.\nMYC is important for monocytic cell proliferation, especially upon LPS stimulation. […] MYC and IRF4 expression levels were examined by intracellular staining of MYC and IRF4 with isotype control staining followed by flow cytometry (FIG. 16a). […] Also, the percentage of THP-1 cells with reduced IRF4 expression was increased by MBK50 treatment compared to mutant control peptide or PBS treatment."}},
  "data": [
    {"sequence": "LSSILQGLYQLDT [MBK50]", "values": [
      {"measurement": "efficacy to target PEL in xenograft", "setting": "BCBL-1 PEL cell line", "result": "demonstrated efficacies"},
      {"measurement": "toxicity to the host mice", "setting": "BCBL-1 PEL cell line; xenograft studies", "result": "without any measurable toxicities"},
      {"measurement": "sensitivity to cell killing", "setting": "U937 cell line", "result": "sensitive"},
      {"measurement": "decrease of CXCL10", "setting": "BCBL-1 PEL cells", "result": "~200", "unit": "fold"},
      {"measurement": "decrease of VEGFA", "setting": "BCBL-1 PEL cells", "result": "~4", "unit": "fold"},
      {"measurement": "expression change of the majority of the 15 cytokines", "setting": "BCBL-1 PEL cells", "result": "about 2 fold"},
      {"measurement": "PC analysis of 92 inflammatory protein expression profiles", "setting": "BCBL-1 PEL cells; 20 days treatment", "result": "away from the cluster"},
      {"measurement": "number of cytokines significantly up- or down-regulated among 92", "setting": "BCBL-1 PEL cells; p<0.05", "result": 15},
      {"measurement": "percentage of live cells", "setting": "CD14+ monocytes", "result": "significantly reduced"},
      {"measurement": "percentage of THP-1 cells with reduced IRF4 expression", "setting": "IRF4", "result": "increased"}
    ]}
  ]
}
